Results: US11358947B2, “Substituted 2-acylamino-cycloalkylthiophene-3-carboxylic acid arylamides as inhibitors of calcium-activated chloride channel TMEM16A” (THE REGENTS OF THE UNIVERSITY OF CALIFORNIA, priority 2017, dated 2022)
“And” between values parts separate entries of the source, which are not always exact repeats. Equal entries are not always repeated.

Legend:
TMEM16A [1] = biological target: T1, TMEM16A (Homo sapiens, UniProt Q5XXA6); assay: TMEM16A functional fluorescence plate reader (FPR) assay, iodide influx in FRT cells with YFP; format: cell-based; conditions: TMEM16A-expressing FRT cells, compound 10 min before iodide/ATP
T1 sequence (Q5XXA6 1-986): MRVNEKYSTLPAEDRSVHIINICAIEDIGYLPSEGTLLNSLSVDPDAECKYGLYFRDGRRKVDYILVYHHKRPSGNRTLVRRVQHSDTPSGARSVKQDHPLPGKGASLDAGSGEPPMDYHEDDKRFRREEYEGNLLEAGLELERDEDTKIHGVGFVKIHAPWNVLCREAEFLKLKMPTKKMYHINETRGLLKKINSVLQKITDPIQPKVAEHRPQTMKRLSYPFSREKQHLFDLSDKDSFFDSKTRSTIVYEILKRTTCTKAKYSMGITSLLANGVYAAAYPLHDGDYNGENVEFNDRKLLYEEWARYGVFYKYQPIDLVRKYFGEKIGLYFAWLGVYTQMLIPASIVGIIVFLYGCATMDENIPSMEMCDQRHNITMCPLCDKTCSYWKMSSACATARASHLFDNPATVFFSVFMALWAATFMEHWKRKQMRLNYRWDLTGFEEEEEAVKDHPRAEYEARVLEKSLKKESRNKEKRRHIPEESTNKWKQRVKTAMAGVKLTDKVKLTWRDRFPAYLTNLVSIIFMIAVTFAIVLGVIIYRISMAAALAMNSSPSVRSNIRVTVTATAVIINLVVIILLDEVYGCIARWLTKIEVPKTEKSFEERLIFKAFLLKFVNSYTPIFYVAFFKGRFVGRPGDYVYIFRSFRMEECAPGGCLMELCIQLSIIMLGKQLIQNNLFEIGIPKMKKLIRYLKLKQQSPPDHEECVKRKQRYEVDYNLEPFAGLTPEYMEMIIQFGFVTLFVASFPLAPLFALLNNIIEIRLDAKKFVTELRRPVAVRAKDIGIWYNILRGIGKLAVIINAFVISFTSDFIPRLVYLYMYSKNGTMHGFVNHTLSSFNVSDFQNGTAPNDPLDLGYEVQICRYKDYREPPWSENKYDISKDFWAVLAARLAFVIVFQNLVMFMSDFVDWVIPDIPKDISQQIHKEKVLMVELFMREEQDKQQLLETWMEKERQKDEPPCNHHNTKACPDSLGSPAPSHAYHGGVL
Protocol: A high-throughput screening assay was previously developed to identify small molecule inhibitors of TMEM16A. […] The assay involved addition of test compounds to the cells for 10 min in a physiological chloride-containing solution, followed by addition of an iodide solution containing ATP. TMEM16A-facilitated iodide influx was determined from the initial time course of decreasing YFP fluorescence.
2-Acylamino-cycloalkylthiophene-3-carboxylic acid arylamides 6aa-6bw were initially evaluated for inhibition of TMEM16A anion channel function using a cell-based functional plate reader assay as reported.
Yields (%) are of the isolated or purified products. IC50 (μM) for inhibition of TMEM16A anion conductance using a fluorescence plate reader (FPR) assay.
Cell lines and culture. Fischer Rat Thyroid (FRT) cells stably co-expressing TMEM16A, TMEM16B and human wild-type CFTR and the halide-sensitive yellow fluorescent protein (YFP)-H148Q were cultured as described. […] For plate reader assays, cells were plated in black 96-well microplates (Corning-Costar Corp., New York, N.Y.) at a density of 20,000 cells per well and assayed 24-48 hours after plating.
TMEM16A functional assay. TMEM16A functional plate-reader assay was done as previously described. […] Test compounds (0.5 μl in DMSO) were added to each well at specified concentration. […] The initial rate of I− influx following each of the solution additions was computed from fluorescence data by nonlinear regression. TMEM16B activity was assayed similarly as described using FRT cells co-expressing YFP and TMEM16B.

TMEM16A [2] = biological target: T1, TMEM16A; assay: Short-circuit current assay in TMEM16A-expressing FRT cells; format: cell-based
Source text: Measurements were done in FRT cells expressing TMEM16A.
(§1) Concentration-dependent inhibition of TMEM16A measured by short-circuit current assay; TMEM16B and non-TMEM16 anion conductance measured using a fluorescence plate reader assay using FRT and HT-29 cells respectively; cell viability measured in FRT null cells.
Short-circuit current measurement. Short-circuit current measurements were done as described. (See Piechowicz, K. A. et al., J Enzyme Inhib Med Chem 2016, 1-7.) Briefly, Snapwell inserts (Corning Costar, Corning, N.Y.) containing TMEM16A-expressing FRT cells were mounted in Ussing chambers (Physiological instruments, San Diego, Calif.). The hemichambers were filled with 5 ml of HCO3^− buffered solution (basolateral) and half-Cl^− solution (apical), and the basolateral membrane was permeabilized with 250 μg/ml amphotericin B. Solutions were bubbled with 95% O2/5% CO2 and maintained at 37° C., and short-circuit current was measured on a DVC-1000 voltage clamp (World Precision Instruments Inc., Sarasota, Fla.) using Ag/AgCl electrodes and 3 M KCl agar bridges.

FRT null cells = assay: Cytotoxicity by Alamar Blue assay in FRT cells; format: cell-based, rat; conditions: 8 h
Protocol: as §1
We further assayed the compound potency on endogenous non-TMEM16A. Ca^2+-activated Cl^− channel in HT-29 cells.
Cytotoxicity. FRT cells were cultured overnight in black 96-well Costar microplates and incubated with 5 μM test compounds for 8 h. Cytotoxicity was measured by Alamar Blue assay (Invitrogen, Carlsbad, Calif.) as per the manufacturer's instructions.

SW-480 cells = assay: SW-480 cell proliferation, AlamarBlue after 72 h; format: cell-based; conditions: Homo sapiens, SW480; AlamarBlue after 72 h of drug treatment; read-out: IC50 inhibition of SW-480 cell proliferation
Protocol: Compounds according to the present disclosure (structures shown in FIG. 5B) were tested for their inhibitory effect on proliferation of SW-480 cell line.
SW-480 cells were cultured on plastic in Leibovitz L15 medium supplemented with 10% fetal bovine serum, 2 mM L-glutamine, 100 units/mL penicillin, and 100 μg/mL streptomycin. The cells were incubated at 37° C. without CO2.
SW-480 cells were plated into black 96-well microplates (Corning-Costar Corp., New York, N.Y.) at 10% seeding. The cells were treated with test compounds dissolved in DMSO in serial dilution while maintaining the final concentration of DMSO at 0.5%. Plated cells were then incubated for 72 h at 37° C. Cell proliferation was quantified using the AlamarBlue assay (Invitrogen, Carlsbad, Calif.) as per the manufacturer's instructions. Data was normalized against untreated control cells that were lysed for 10 minutes using Triton-X100 (0.1% in PBS).

Cc1ccccc1NC(=O)c1c(NC(=O)C(F)(F)F)sc2c1CCCCC2 [Compound 6aa, 2-(2,2,2-Trifluoro-acetylamino)-5,6,7,8-tetrahydro-4H-cyclohepta[b]thiophene-3-carboxylic acid o-tolylamide]
IC50 (TMEM16A [1]): 420 nM | IC50 (TMEM16A [2]): 260 nM | Cellular survival % at 5 μM (FRT null cells): 99% | IC50 (SW-480 cells): 950 nM

Cc1ccccc1NC(=O)c1c(NC(=O)C(F)(F)Br)sc2c1CCCCC2 [Compound 6bm, 2-(2-Bromo-2,2-difluoro-acetylamino)-5,6,7,8-tetrahydro-4H-cyclohepta[b]thiophene-3-carboxylic acid o-tolylamide]
IC50 (TMEM16A [1]): 80 to 180 nM and 83 nM | IC50 (TMEM16A [2]): 30 nM | Cellular survival % at 5 μM (FRT null cells): 97% | IC50 (SW-480 cells): 7000 nM
